Here are results for 41 compounds from US10266526B2, “Substituted 1,2,3-triazoles as SMYD inhibitors for treating cancer” (EPIZYME, INC., priority 2014, dated 2019).

The term IC50 denotes the point on the concentration scale where inhibition reaches its midpoint.

The target of the first assay is SMYD3 (Homo sapiens (Human), UniProt Q9H7B4). The assay can be described thus: SMYD3 biochemical assay (SMYD3 enzyme assay on MEKK2 protein substrate, 3H-SAM scintillation proximity assay). Particulars: Table 1A; average of n = 1 to n = 50; read-out: SMYD3 Biochem IC50. Summed up: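 Detection used scintillation proximity beads to capture ³H-methylated GST-MEKK2 after quench with 100 uM final cold SAM. The reaction was started by SAM/MEKK2 addition after a 30 min RT compound–enzyme preincubation. Enzyme was tag-free full-length human SMYD3 from E. coli, in buffer of 25 mM Tris-Cl pH 8.0, 1 mM TCEP, 0.005% BSG, 0.005% Tween 20.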
Chain of SMYD3 (Q9H7B4 whole entry): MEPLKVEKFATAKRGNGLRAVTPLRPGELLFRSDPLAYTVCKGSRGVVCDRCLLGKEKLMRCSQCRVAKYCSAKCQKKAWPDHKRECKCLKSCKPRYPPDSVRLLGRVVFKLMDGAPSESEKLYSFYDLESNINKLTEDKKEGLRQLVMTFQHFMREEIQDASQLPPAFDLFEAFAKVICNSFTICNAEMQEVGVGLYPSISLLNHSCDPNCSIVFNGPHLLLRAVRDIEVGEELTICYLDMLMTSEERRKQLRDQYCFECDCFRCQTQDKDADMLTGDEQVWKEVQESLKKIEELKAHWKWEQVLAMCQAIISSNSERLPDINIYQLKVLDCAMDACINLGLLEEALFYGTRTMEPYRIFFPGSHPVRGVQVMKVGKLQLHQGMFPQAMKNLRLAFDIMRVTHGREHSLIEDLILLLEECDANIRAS
On the technique in general: SPA uses beads or plates that emit light when radiolabelled molecules are held near them.
Regarding `C[C@H]1C[C@@H](NC(=O)c2ccccc2)CCN1C(=O)C1CCC(N)CC1` (mixture of isomers) [compound 567, (±)-cis-N-(1-(4-aminocyclohexane-1-carbonyl)-2-methylpiperidin-4-yl)benzamide], the IC50 was more than 10 µM. Same read-out and setting: as for `C[C@H]1C[C@H](NC(=O)c2ccccc2)CCN1C(=O)C1CCC(N)CC1` (mixture of isomers) [compound 571, (±)-trans-N-(1-(4-aminocyclohexane-1-carbonyl)-2-methylpiperidin-4-yl)benzamide], the figure is more than 10 µM; as for `Cc1cc2cc(C(=O)NC(C)C3CCN(C(=O)[C@H](C)N)CC3)ccc2[nH]1` (stereo partly drawn) [compound 538, N-(1-(1-(L-alanyl)piperidin-4-yl)ethyl)-2-methyl-1H-indole-5-carboxamide], more than 50 µM. Regarding `C[C@@H]1C[C@H](NC(=O)c2ccccc2)CCN1C(=O)C1CCC(N)CC1` (mixture of isomers) [compound 558, (±)-cis-N-(1-(4-aminocyclohexane-1-carbonyl)-2-methylpiperidin-4-yl)benzamide], the IC50 was more than 10 µM. Still for that read-out and setting: for `Cc1n[nH]c(C(=O)NC(C)C2CCN(C(=O)[C@H](C)N)CC2)n1` (stereo partly drawn) [compound 549, N-(1-(1-(L-alanyl)piperidin-4-yl)ethyl)-3-methyl-1H-1,2,4-triazole-5-carboxamide] the value was more than 50 µM.

Staying with this assay, now noted: read-out: SMYD3 Biochem IC50.
Regarding `Cc1cc(C(=O)N[C@H]2CC[C@H](NC(=O)CCN)CC2)ccn1` [compound 393, N-((1r,4r)-4-(3-aminopropanamido)cyclohexyl)-2-methylisonicotinamide], the half-maximal inhibitory concentration (IC50) is more than 100 µM.

For the compound `NCCC(=O)N[C@H]1CC[C@H](NC(=O)c2ccnc(O)c2)CC1` [compound 376, N-((1r,4r)-4-(3-aminopropanamido)cyclohexyl)-2-hydroxyisonicotinamide], the IC50 was more than 100 µM. In the case of `NCCC(=O)N[C@H]1CC[C@H](NC(=O)c2ccc3nonc3c2)CC1` [compound 332, N-((1r,4r)-4-(3-aminopropanamido)cyclohexyl)benzo[c][1,2,5]oxadiazole-5-carboxamide], the concentration for half-maximal inhibition (IC50) was more than 100 µM.

Consider `Cc1cccc2cc(C(=O)NC(C)C3CCN(C(=O)[C@H](C)N)CC3)[nH]c12` (stereo partly drawn) [compound 300, N-(1-(1-(L-alanyl)piperidin-4-yl)ethyl)-7-methyl-1H-indole-2-carboxamide], for which the concentration for half-maximal inhibition (IC50) was more than 100 µM. `Cc1cc2cc(C(=O)N[C@H]3CC[C@H](NC(=O)CCN)CC3)ccc2[nH]1` [compound 519, N-((1r,4r)-4-(3-aminopropanamido)cyclohexyl)-2-methyl-1H-indole-5-carboxamide]: the IC50 is more than 50 µM.

Take `NCCC(=O)N[C@H]1CC[C@H](NC(=O)[C@H]2C[C@H](O)CN2)CC1` [compound 434, (2R,4S)-N-((1r,4r)-4-(3-aminopropanamido)cyclohexyl)-4-hydroxypyrrolidine-2-carboxamide]: the concentration for half-maximal inhibition (IC50) is more than 100 µM.

`N[C@H]1CC[C@H](NC(=O)c2cccc3[nH]ccc23)CC1` [compound 291, N-((1r,4r)-4-aminocyclohexyl)-1H-indole-4-carboxamide]: the 50% inhibitory concentration (IC50) is more than 100 µM.

On to `NCCC(=O)N[C@H]1CC[C@H](NC(=O)c2cc3cc(Cl)ccc3[nH]2)CC1` [compound 230, N-((1r,4r)-4-(3-aminopropanamido)cyclohexyl)-5-chloro-1H-indole-2-carboxamide], for which the half-maximal inhibitory concentration (IC50) came to 37.5 µM. In the case of `N[C@H]1CC[C@H](NC(=O)c2ccc3c(c2)OC(F)(F)O3)CC1` [compound 285, N-((1r,4r)-4-aminocyclohexyl)-2,2-difluorobenzo[d][1,3]dioxole-5-carboxamide], the IC50 amounted to 69.1 µM. In the case of `N[C@H]1CC[C@H](NC(=O)c2ccc(N3CCCC3)cc2)CC1` [compound 280, N-((1r,4r)-4-aminocyclohexyl)-4-(pyrrolidin-1-yl)benzamide], the IC50 was determined as 48 µM. Consider `N[C@H]1CC[C@H](NC(=O)c2nccc3ccccc23)CC1` [compound 197, N-((1r,4r)-4-aminocyclohexyl)isoquinoline-1-carboxamide], for which the IC50 was more than 100 µM. Still for that read-out and setting: for `CC(NC(=O)c1cccc(F)n1)C1CCN(C(=O)[C@H](C)N)CC1` (stereo partly drawn) [compound 265, N-(1-(1-(L-alanyl)piperidin-4-yl)ethyl)-6-fluoropicolinamide] the value was more than 100 µM. In the case of `NCCC(=O)N[C@H]1CC[C@H](NC(=O)c2cccc3c2OC(F)(F)O3)CC1` [compound 440, N-((1r,4r)-4-(3-aminopropanamido)cyclohexyl)-2,2-difluorobenzo[d][1,3]dioxole-4-carboxamide], the half-inhibitory concentration (IC50) was more than 100 µM. On the same count and under the same terms, as for `N[C@H]1CC[C@H](NC(=O)Cc2cncnc2)CC1` [compound 365, N-((1r,4r)-4-aminocyclohexyl)-2-(pyrimidin-5-yl)acetamide], the figure is more than 100 µM; as for `NCCC(=O)N[C@H]1CC[C@H](NC(=O)c2ccc3c(c2)C(=O)C(=O)N3)CC1` [compound 504, N-((1r,4r)-4-(3-aminopropanamido)cyclohexyl)-2,3-dioxoindoline-5-carboxamide], 5.38 µM.

In the case of `CC(NC(=O)c1n[nH]c2ccccc12)C1CCN(C(=O)[C@H](C)N)CC1` (stereo partly drawn) [compound 312, N-(1-(1-(L-alanyl)piperidin-4-yl)ethyl)-1H-indazole-3-carboxamide], the IC50 was more than 100 µM. As for `CC(NC(=O)c1ccc(-c2ccccc2)cc1)C1CCN(C(=O)[C@H](C)N)CC1` (stereo partly drawn) [compound 189, N-(1-(1-(L-alanyl)piperidin-4-yl)ethyl)-[1,1′-biphenyl]-4-carboxamide], the IC50 was more than 100 µM. As for `CC(NC(=O)Cc1c[nH]c2cccnc12)C1CCN(C(=O)[C@H](C)N)CC1` (stereo partly drawn) [compound 406, N-(1-(1-(L-alanyl)piperidin-4-yl)ethyl)-2-(1H-pyrrolo[3,2-b]pyridin-3-yl)acetamide], the half-maximal inhibitory concentration (IC50) is more than 100 µM. As for `COc1cncc(C(=O)N[C@H]2CC[C@H](N)CC2)n1` [compound 356, N-((1r,4r)-4-aminocyclohexyl)-6-methoxypyrazine-2-carboxamide], the IC50 was more than 100 µM. Same read-out and setting: for `N[C@H]1CC[C@H](NC(=O)c2ccc3c(c2)C(=O)C(=O)N3)CC1` [compound 470, N-((1r,4r)-4-aminocyclohexyl)-2,3-dioxoindoline-5-carboxamide] the value was 7.46 µM; for `N[C@H]1CC[C@H](NC(=O)c2cccnc2O)CC1` [compound 411, N-((1r,4r)-4-aminocyclohexyl)-2-hydroxynicotinamide], more than 100 µM. The same measure, in the same setting: as for `CC(NC(=O)/C=C/c1c[nH]cn1)C1CCN(C(=O)[C@H](C)N)CC1` (stereo partly drawn) [compound 494, (E)-N-(1-(1-(L-alanyl)piperidin-4-yl)ethyl)-3-(1H-imidazol-4-yl)acrylamide], the figure is more than 100 µM; as for `NCCC(=O)N[C@H]1CC[C@H](C(=O)Nc2ccc3c(c2)CC(=O)N3)CC1` [compound 467, (1r,4r)-4-(3-aminopropanamido)-N-(2-oxoindolin-5-yl)cyclohexane-1-carboxamide], 4.46 µM. `COc1cc(C(=O)NC(C)C2CCN(C(=O)[C@H](C)N)CC2)c2ccccc2n1` (stereo partly drawn) [compound 221, N-(1-(1-(L-alanyl)piperidin-4-yl)ethyl)-2-methoxyquinoline-4-carboxamide]: the IC50 is more than 100 µM. On the same count and under the same terms, as for `NCCC(=O)N[C@H]1CC[C@H](NC(=O)/C=C/c2c[nH]cn2)CC1` [compound 482, (E)-N-((1r,4r)-4-(3-aminopropanamido)cyclohexyl)-3-(1H-imidazol-4-yl)acrylamide], the figure is 71.1 µM; as for `N[C@H]1CC[C@H](NC(=O)c2ccc(O)nn2)CC1` [compound 271, N-((1r,4r)-4-aminocyclohexyl)-6-hydroxypyridazine-3-carboxamide], more than 100 µM.

Still in this assay, the particulars now being: read-out: SMYD3 Biochem IC50 (μM)*.
In the case of `CC(NC(=O)c1ccc2c(c1)OCO2)C1CCN(C(=O)[C@H](C)N)CC1` (stereo partly drawn) [compound 146, N-(1-(1-(L-alanyl)piperidin-4-yl)ethyl)benzo[d][1,3]dioxole-5-carboxamide], the half-maximal inhibitory concentration (IC50) is more than 100 µM. Still for that read-out and setting: as for `Cc1nc(-c2ccc(C(=O)N[C@H]3CC[C@H](N)CC3)cc2)no1` [compound 137, N-((1r,4r)-4-aminocyclohexyl)-4-(5-methyl-1,2,4-oxadiazol-3-yl)benzamide], the figure is 46.6 µM; as for `Cc1nc(-c2ccc(C(=O)NC(C)C3CCN(C(=O)[C@H](C)N)CC3)cc2)no1` (stereo partly drawn) [compound 179, N-(1-(1-(L-alanyl)piperidin-4-yl)ethyl)-4-(5-methyl-1,2,4-oxadiazol-3-yl)benzamide], more than 100 µM. With `N[C@H]1CC[C@H](NC(=O)c2ccc3c(c2)NC(=O)CN3)CC1` [compound 70, N-((1r,4r)-4-aminocyclohexyl)-3-oxo-1,2,3,4-tetrahydroquinoxaline-6-carboxamide], the IC50 worked out at 77.5 µM. `CN1C(=O)Cc2cc(C(=O)NC3CCN(C(=O)[C@@H](N)Cc4c[nH]c5ccccc45)CC3)ccc21` [compound 83, N-(1-(L-tryptophyl)piperidin-4-yl)-1-methyl-2-oxoindoline-5-carboxamide]: the 50% inhibitory concentration (IC50) came out at 12.9 µM.

For the compound `NCCC(=O)N[C@H]1CC[C@H](NC(=O)c2ncccn2)CC1` [compound 145, N-((1r,4r)-4-(3-aminopropanamido)cyclohexyl)pyrimidine-2-carboxamide], the half-maximal inhibitory concentration (IC50) is more than 100 µM.

Take `CCc1cc(C(=O)N[C@H]2CC[C@H](N)CC2)ns1` [compound 17, N-((1r,4r)-4-aminocyclohexyl)-5-ethylisothiazole-3-carboxamide]: the IC50 came to 13.5 µM. On to `CC(=O)c1c[nH]c(C(=O)Nc2ccc(CN)cc2)c1` [compound 66, 4-acetyl-N-(4-(aminomethyl)phenyl)-1H-pyrrole-2-carboxamide], for which the IC50 came out at 60.9 µM. On the same count and under the same terms, as for `N[C@H]1CC[C@H](NC(=O)c2ccc3[nH]c(=O)oc3c2)CC1` [compound 90, N-((1r,4r)-4-aminocyclohexyl)-2-oxo-2,3-dihydrobenzo[d]oxazole-6-carboxamide], the figure is 9.76 µM. Same read-out and setting: for `C[C@H](N)C(=O)N1CCC(F)(CNC(=O)c2ccc3c(c2)CC(=O)N3)CC1` [compound 113, N-((1-(L-alanyl)-4-fluoropiperidin-4-yl)methyl)-2-oxoindoline-5-carboxamide] the value was 3.86 µM.
